# Experiments:
# Ovarian panel = assay: NCI screen, panel average; assay type: cell-based, human; settings: for LC50 (50% lethal concentration): Homo sapiens, read-out: Log10 LC50 (concentration in mol/L causing 50% lethality) (converted); for Log10 GI50 (concentration in mol/L): Ovarian, average of six to eight cell lines
# NCI-H522 = assay: NCI in vitro cytotoxicity (SRB); assay type: cell-based; settings: Homo sapiens
# PC-3 = assay: NCI in vitro cytotoxicity (SRB); assay type: cell-based; settings: Homo sapiens; Prostate PC-3; 48 h exposure
# HOP-92 = assay: NCI in vitro cytotoxicity (SRB); assay type: cell-based; settings: Homo sapiens; Non-smallcell lung HOP-92; 48 h exposure
# HS 578T = assay: NCI in vitro cytotoxicity (SRB); assay type: cell-based; settings: Homo sapiens; Breast HS 578T; 48 h exposure
# UACC-62 = assay: NCI in vitro cytotoxicity (SRB); assay type: cell-based; settings: Homo sapiens; Melanoma UACC-62; 48 h exposure
# UO-31 = assay: NCI in vitro cytotoxicity (SRB); assay type: cell-based; settings: Homo sapiens; Renal UO-31; 48 h exposure
# IGROV1 = assay: NCI in vitro cytotoxicity (SRB); assay type: cell-based; settings: Homo sapiens, IGROV-1
# EKVX = assay: NCI in vitro cytotoxicity (SRB); assay type: cell-based; settings: Homo sapiens; Non-smallcell lung EKVX; 48 h exposure
# MOLT-4 = assay: NCI in vitro cytotoxicity (SRB); assay type: cell-based; settings: Homo sapiens
# K-562 = assay: NCI in vitro cytotoxicity (SRB); assay type: cell-based; settings: Homo sapiens, K562; Leukemia K-562; 48 h exposure
# HT29 = assay: NCI in vitro cytotoxicity (SRB); assay type: cell-based; settings: Homo sapiens, HT-29; Colon HT29; 48 h exposure
# M14 = assay: NCI in vitro cytotoxicity (SRB); assay type: cell-based; settings: Homo sapiens; Melanoma M14; 48 h exposure
# U251 = assay: NCI in vitro cytotoxicity (SRB); assay type: cell-based; settings: Homo sapiens, U-251; CNS U251; 48 h exposure
# HCT-116 = assay: NCI in vitro cytotoxicity (SRB); assay type: cell-based; settings: Homo sapiens
# SR = assay: NCI in vitro cytotoxicity (SRB); assay type: cell-based; settings: Homo sapiens
# NCI-H322M = assay: NCI in vitro cytotoxicity (SRB); assay type: cell-based; settings: Homo sapiens; Non-smallcell lung NCI-H322M; 48 h exposure
# ACHN = assay: NCI in vitro cytotoxicity (SRB); assay type: cell-based; settings: Homo sapiens; Renal ACHN; 48 h exposure
# LOX IMVI = assay: NCI in vitro cytotoxicity (SRB); assay type: cell-based; settings: Homo sapiens
# SW-620 = assay: NCI in vitro cytotoxicity (SRB); assay type: cell-based; settings: Homo sapiens
# Breast panel = assay: NCI screen, panel average; assay type: cell-based, human; settings: for Log10 GI50 (concentration in mol/L): Breast, average of six to eight cell lines; for LC50: Homo sapiens, read-out: Log10 LC50 (concentration in mol/L causing 50% lethality) (converted)
# DU-145 = assay: NCI in vitro cytotoxicity (SRB); assay type: cell-based; settings: Homo sapiens
# SNB-75 = assay: NCI in vitro cytotoxicity (SRB); assay type: cell-based; settings: Homo sapiens; CNS SNB-75; 48 h exposure
# MDA-MB-468 = assay: NCI in vitro cytotoxicity (SRB); assay type: cell-based; settings: Homo sapiens
# CCRF-CEM = assay: NCI in vitro cytotoxicity (SRB); assay type: cell-based; settings: Homo sapiens; Leukemia CCRF-CEM; 48 h exposure
# HL-60(TB) = assay: NCI in vitro cytotoxicity (SRB); assay type: cell-based; settings: Homo sapiens; Leukemia HL-60(TB); 48 h exposure
# HCT-15 = assay: NCI in vitro cytotoxicity (SRB); assay type: cell-based; settings: Homo sapiens; Colon HCT-15; 48 h exposure
# HOP-62 = assay: NCI in vitro cytotoxicity (SRB); assay type: cell-based; settings: Homo sapiens
# T-47D = assay: NCI in vitro cytotoxicity (SRB); assay type: cell-based; settings: Homo sapiens, T47D; Breast T-47D; 48 h exposure
# [1] = tested on: sixty human tumour cell lines; settings: mean over human tumour cell lines
# Procedure: For each compound, dose response curves for each cell line were measured at a minimum of five concentrations at 10 fold dilutions. A protocol of 48 h continuous drug exposure was used and a sulforhodamine B (SRB) protein assay was used to estimate cell viability or growth. The concentration causing 50% cell growth inhibition (G150), total cell growth inhibition (TGI 0% growth) and 50% cell death (LC50, −50% growth) compared with the control was calculated.
# OVCAR-3 = assay: NCI in vitro cytotoxicity (SRB); assay type: cell-based; settings: Homo sapiens
# SNB-19 = assay: NCI in vitro cytotoxicity (SRB); assay type: cell-based; settings: Homo sapiens; CNS SNB-19; 48 h exposure
# RPMI-8226 = assay: NCI in vitro cytotoxicity (SRB); assay type: cell-based; settings: Homo sapiens; Leukemia RPMI-8226; 48 h exposure
# Colon panel = assay: NCI screen, panel average; assay type: cell-based, human; settings: for Log10 GI50 (concentration in mol/L): Colon, average of six to eight cell lines; for LC50: Homo sapiens, read-out: Log10 LC50 (concentration in mol/L causing 50% lethality) (converted)
# SK-MEL-5 = assay: NCI in vitro cytotoxicity (SRB); assay type: cell-based; settings: Homo sapiens; Melanoma SK-MEL-5; 48 h exposure
# SF-268 = assay: NCI in vitro cytotoxicity (SRB); assay type: cell-based; settings: Homo sapiens
# SK-MEL-2 = assay: NCI in vitro cytotoxicity (SRB); assay type: cell-based; settings: Homo sapiens; Melanoma SK-MEL-2; 48 h exposure
# SK-OV-3 = assay: NCI in vitro cytotoxicity (SRB); assay type: cell-based; settings: Homo sapiens; Ovarian SK-OV-3; 48 h exposure
# [2] = Non-smallcell lung NCI-H522, 48 h exposure
# [3] = Melanoma LOX IMVI, 48 h exposure
# [4] = Breast MDA-MB-468, 48 h exposure
# [5] = Non-smallcell lung HOP-62, 48 h exposure
smiles,measurement,setting,value
"COc1cc2c(cc1OCCCN1CCN(C(=S)SCCC(C#N)(c3ccccc3)c3ccccc3)CC1)N=C[C@@H]1CCCN1C2=O [Compound 12b, 3-cyano-3,3-diphenylpropyl 4-(3-[(11aS)-7-(methyloxy)-5-oxo-2,3,5,11a-tetrahydro-1H-benzo[e]pyrrolo[1,2-a][1,4]diazepin-8-yl]oxypropyl)hexahydro-1-pyrazinecarbodithioate]",LC50 (50% lethal concentration),Ovarian panel,18.6 µM
same,Log10 GI50 (concentration in mol/L),Ovarian panel,−6.03 mol/L
same,GI50,NCI-H522; [2],170 nM
same,GI50,NCI-H522; non-small cell lung NCI-H522,170 nM
same,GI50,PC-3,340 nM
same,GI50,HOP-92,1070 nM
same,GI50,HS 578T,560 nM
same,GI50,UACC-62,1060 nM
same,GI50,UO-31,1100 nM
same,GI50,"IGROV1; Ovarian IGROV1, 48 h exposure",300 nM
same,GI50,IGROV1; ovarian IGROV1,300 nM
same,GI50,EKVX,2290 nM
same,GI50,"MOLT-4; Leukemia MOLT-4, 48 h exposure",220 nM
same,GI50,MOLT-4; leukemia MOLT-4,220 nM
same,GI50,K-562,260 nM
same,GI50,HT29,870 nM
same,GI50,M14,1170 nM
same,GI50,U251,390 nM
same,GI50,"HCT-116; Colon HCT-116, 48 h exposure",380 nM
same,GI50,HCT-116; colon cancer HCT-116,380 nM
same,GI50,"SR; Leukemia SR, 48 h exposure",180 nM
same,GI50,SR; leukemia SR,180 nM
same,GI50,NCI-H322M,1870 nM
same,GI50,ACHN,940 nM
same,GI50,LOX IMVI; [3],600 nM
same,GI50,LOX IMVI; melanoma LOX IMVI,600 nM
same,GI50,"SW-620; Colon SW-620, 48 h exposure",510 nM
same,GI50,SW-620; colon cancer SW-620,510 nM
same,Log10 GI50 (concentration in mol/L),Breast panel,−6.13 mol/L
same,LC50,Breast panel,37.2 µM
same,GI50,"DU-145; Prostate DU-145, 48 h exposure",260 nM
same,GI50,DU-145; prostate DU-145,260 nM
same,GI50,SNB-75,1260 nM
same,GI50,"MDA-MB-468; MDA-MB-468, breast MDA-MEI-468",280 nM
same,GI50,MDA-MB-468; [4],280 nM
same,GI50,CCRF-CEM,230 nM
same,GI50,HL-60(TB),250 nM
same,GI50,HCT-15,1810 nM
same,GI50,HOP-62; [5],120 nM
same,GI50,HOP-62; non-small cell lung HOP-62,210 nM
same,GI50,T-47D,570 nM
same,Log10GI50 mean graph midpoint (MG_MID),[1],−6.15
same,Log10LC50 mean graph midpoint (MG_MID),[1],−4.96
same,Log10TGI mean graph midpoint (MG_MID),[1],−5.67
same,GI50,"OVCAR-3; Ovarian OVCAR-3, 48 h exposure",280 nM
same,GI50,OVCAR-3; ovarian OVCAR-3,280 nM
same,GI50,SNB-19,1230 nM
same,GI50,RPMI-8226,220 nM
same,Log10 GI50 (concentration in mol/L),Colon panel,−6.02 mol/L
same,LC50,Colon panel,8.51 µM
same,GI50,SK-MEL-5,1180 nM
same,GI50,"SF-268; SF-268, CNS SF268",280 nM
same,GI50,"SF-268; CNS SF-268, 48 h exposure",280 nM
same,GI50,SK-MEL-2,1160 nM
same,GI50,SK-OV-3,2690 nM
"COc1cc2c(cc1OCCCCN1CCN(C(=S)SCCC(C#N)(c3ccccc3)c3ccccc3)CC1)N=C[C@@H]1CCCN1C2=O [Compound 12c, 3-cyano-3,3-diphenylpropyl 4-(4-[(11aS)-7-(methyloxy)-5-oxo-2,3,5,11a-tetrahydro-1H-benzo[e]pyrrolo[1,2-a][1,4]diazepin-8-yl]oxybutyl)hexahydro-1-pyrazinecarbodithioate]",LC50 (50% lethal concentration),Ovarian panel,55 µM
same,Log10 GI50 (concentration in mol/L),Ovarian panel,−5.82 mol/L
same,GI50,NCI-H522; [2],190 nM
same,GI50,PC-3,690 nM
same,GI50,HOP-92,1070 nM
same,GI50,HS 578T,720 nM
same,GI50,UACC-62,1320 nM
same,GI50,UO-31,590 nM
same,GI50,"IGROV1; Ovarian IGROV1, 48 h exposure",420 nM
same,GI50,EKVX,1880 nM
same,GI50,"MOLT-4; Leukemia MOLT-4, 48 h exposure",350 nM
same,GI50,K-562,3290 nM
same,GI50,HT29,1130 nM
same,GI50,M14,1250 nM
same,GI50,U251,1110 nM
same,GI50,"HCT-116; Colon HCT-116, 48 h exposure",540 nM
same,GI50,"SR; Leukemia SR, 48 h exposure",250 nM
same,GI50,NCI-H322M,1400 nM
same,GI50,ACHN,1160 nM
same,GI50,LOX IMVI; [3],690 nM
same,GI50,"SW-620; Colon SW-620, 48 h exposure",1120 nM
same,Log10 GI50 (concentration in mol/L),Breast panel,−6.02 mol/L
same,LC50,Breast panel,66.1 µM
same,GI50,"DU-145; Prostate DU-145, 48 h exposure",1470 nM
same,GI50,SNB-75,1640 nM
same,GI50,MDA-MB-468; [4],490 nM
same,GI50,CCRF-CEM,530 nM
same,GI50,HL-60(TB),320 nM
same,GI50,HCT-15,1410 nM
same,GI50,HOP-62; [5],710 nM
same,GI50,T-47D,570 nM
same,Log10GI50 mean graph midpoint (MG_MID),[1],−5.98
same,Log10LC50 mean graph midpoint (MG_MID),[1],−4.48
same,Log10TGI mean graph midpoint (MG_MID),[1],−5.28
same,GI50,"OVCAR-3; Ovarian OVCAR-3, 48 h exposure",1200 nM
same,GI50,SNB-19,1670 nM
same,GI50,RPMI-8226,490 nM
same,Log10 GI50 (concentration in mol/L),Colon panel,−5.93 mol/L
same,LC50,Colon panel,72.4 µM
same,GI50,SK-MEL-5,1110 nM
same,GI50,"SF-268; CNS SF-268, 48 h exposure",1230 nM
same,GI50,SK-MEL-2,1040 nM
same,GI50,SK-OV-3,2960 nM
